Measured values published in US10364234B2, “Pyridinecarboxamide derivatives, preparation method thereof and pharmaceutical uses thereof” (Jiangsu Hengrui Medicine Co., Ltd., priority 2014, dated 2019).

Key:
[1] = Solubility observed when preparing the dosing formulation; type: physicochemical; details: preparation of dosing formulation for the diuresis experiment
Description: In this experiment, the solubility of the test compound 1 was very good. There was no delamination phenomenon. […] After fully grinding, the solubility improved. […] Moreover, the effect was dose-dependent for each dose of the test compound 1 and the positive control drug.

[2] = tested on: SD rats; assay: Diuretic efficacy of ROMK inhibitors in SD rats; type: in vivo, rat; details: for urinary sodium excretion increase compared with blank control group / urinary potassium compared with normal control group: 4 h; for urine output increase compared with blank control group: total urine in 4 h; for urinary potassium compared with normal control group / serum potassium change / serum sodium change: 0.03 and 0.1 mg/kg i.g. once; for serum potassium change / serum sodium change: P>0.05
Experimental: The diuretic efficacy of compound 1 and positive control drug of ROMK inhibitor on SD rats was evaluated.
Male SD rats were purchased from SINO-BRITSH SIPPR/BK LAB. ANIMAL LTD., CO (Shanghai, China, Certificate No. 2008001647752, License SCXK (Shanghai) 2013-0016). The rats were 120-130 g, and fed at 5/cage, in a 12/12 hours light/dark cycle regulation, at a constant temperature of 23±1° C., humidity of 50˜60%, and free access to water and food. The male SD rats were acclimated to this condition for 7 days before their use in the diuresis experiment.
The experiment was carried out according to the method disclosed in PCT Patent Application Publication WO2010129379A1 After adaptive feeding, the rats were placed in metabolism cages and fasted overnight. The rats were weighed and randomly divided into the following groups: blank control group, compound 1 tested drug 0.03 mg/kg group and 0.1 mg/kg group, and the positive control group 0.03 mg/kg and group 0.1 mg/kg, with 10 rats for each group. Each rat was intragastrically administered each compound (ig, 1 ml/kg). The rats in the blank control group were fed with the corresponding solvent. After intragastric administration, the rats were placed in the normal cage. After 30 min, 25 ml/kg normal saline was given. Rats were put into the metabolic cages, and fasting for food and water began immediately. The total urine volume in 4 h was collected and measured. The urinary sodium and urinary potassium excretion in 4 h were also measured. The orbital serum was collected after the collection of urine to test the serum sodium and serum potassium concentrations.
The experimental data were expressed as mean±standard deviation (S.D.). The data was statistically compared using the t test of excel.

[3] = Pharmacokinetics assay in SD rats, intragastric administration; type: in vivo; details: both sexes, Sprague-Dawley, rat, plasma, oral 5 mg/kg
Experimental: Rats were used as test animals. The drug concentration in plasma at different time points was determined by LC/MS/MS after administration of the compounds to rats. The pharmacokinetic behavior of the present compounds was studied and evaluated in rats.
Four (4) healthy adult Sprague-Dawley (SD) rats, half male and half female, were purchased from SINO-BRITSH SIPPR/BK LAB. ANIMAL LTD., CO, with Certificate No.: SCXK (Shanghai) 2008-0016.
The appropriate amount of the test compounds was weighed, and added with 0.5% CMC-Na to a final volume to prepare a 0.5 mg/mL suspension by ultrasonication.
Following fasting overnight, 4 SD rats, half male and half female were administered intragastrically a dose of 5.0 mg/kg and an administration volume of 10 mL/kg.
Blood (0.1 mL) was sampled from orbital sinus before administration and 0.5 h, 1.0 h, 2.0 h, 4.0 h, 6.0 h, 8.0 h, 11.0 h, and 24.0 h after administration. The samples were stored in EDTA anticoagulation tubes, and centrifuged for 10 minutes at 3,500 rpm to separate the blood plasma. The plasma samples were stored at −20° C. The rats were fed 2 hours after administration.
The plasma concentration of the test compounds in rats after intragastric administration was determined by LC-MS/MS. Plasma samples were analyzed after pretreatment by protein precipitation.

[4] = target: rat ROMK channel (Rattus norvegicus (Rat), UniProt P35560); assay: FluxOR potassium ion channel assay, rat ROMK/HEK293 cells; type: cell-based
Chain of rat ROMK channel (P35560 whole entry): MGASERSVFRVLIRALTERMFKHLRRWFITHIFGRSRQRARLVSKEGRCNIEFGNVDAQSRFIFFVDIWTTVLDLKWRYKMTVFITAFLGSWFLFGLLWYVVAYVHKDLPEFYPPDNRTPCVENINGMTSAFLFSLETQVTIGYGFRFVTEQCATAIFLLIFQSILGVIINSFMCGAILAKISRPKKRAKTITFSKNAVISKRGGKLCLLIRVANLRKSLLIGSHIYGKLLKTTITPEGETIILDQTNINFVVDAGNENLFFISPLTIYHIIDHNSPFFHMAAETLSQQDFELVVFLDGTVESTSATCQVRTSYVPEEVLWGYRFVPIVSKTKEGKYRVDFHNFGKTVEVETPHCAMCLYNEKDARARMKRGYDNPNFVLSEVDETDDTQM
Description: (§1) The method described hereafter was used for determining the inhibitory activity of the present compounds on human ROMK and rat ROMK channels.
(5) Rat ROMK/HEK293 cell: HEK293 cell line transfected by rat ROMK cDNA (NCBI SEQ ID NO. NM-017023.1) stably expressing the ROMK channel
The above procedures were repeated, except for replacing human ROMK/HEK293 cells with rat ROMK/HEK 293 cells, to determine the inhibition IC50 of the present compounds on rat ROMK channel.
(§2) The inhibitory activity of the present compounds on human ROMK or rat ROMK channel was tested by the assay described above.

[5] = target: human ROMK channel (Homo sapiens (Human), UniProt P48048); assay: FluxOR potassium ion channel assay, human ROMK/HEK293 cells; type: cell-based
Chain of human ROMK channel (P48048 whole entry): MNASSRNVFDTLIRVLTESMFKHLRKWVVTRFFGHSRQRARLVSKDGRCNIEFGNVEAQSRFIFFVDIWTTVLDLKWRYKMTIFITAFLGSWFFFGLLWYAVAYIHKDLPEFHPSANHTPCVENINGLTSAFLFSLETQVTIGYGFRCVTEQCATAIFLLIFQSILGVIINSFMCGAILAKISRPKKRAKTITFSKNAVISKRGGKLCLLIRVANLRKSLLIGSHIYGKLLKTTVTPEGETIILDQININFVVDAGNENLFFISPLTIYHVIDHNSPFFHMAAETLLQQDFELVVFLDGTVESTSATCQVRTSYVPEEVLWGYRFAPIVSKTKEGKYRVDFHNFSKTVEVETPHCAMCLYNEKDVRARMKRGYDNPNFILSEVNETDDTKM
Experimental: as §1
(1) FluxOR™ potassium ion channel assay (F10016, Invitrogen)
(3) FlexStation3 microplate reader (Molecular Devices)
(4) Human ROMK/HEK293 cell: HEK293 cell line stably expressing the ROMK channel transfected by human ROMK cDNA (NCBI SEQ ID NO. NM-000220.4)
as §2

[6] = target: ROMK potassium channel (Homo sapiens (Human), UniProt P48048); assay: Electrophysiological manual patch clamp on ROMK potassium channel (human ROMK/HEK293 cells); type: cell-based
Chain of ROMK potassium channel (P48048 whole entry): as above
Description: The experiment was designed to test the effect of compounds on ROMK potassium channel in HEK 293 in vitro. ROMK potassium channel is stably expressed on the HEK293 cells of the present application. After the potassium ion current was stabilized, the effect of the present compound on the potassium channel was obtained by comparing the potassium current obtained before and after the use of the present compound at different concentrations.
(2) Human ROMK/HEK293 cell: HEK293 cell line stably expressing the ROMK channel transfected by human ROMK cDNA (NCBI SEQ ID NO. NM-000220.4);
(3) Extracellular fluid (mM): NaCl, 137; KCl, 4; CaCl2, 1.8; MgCl2, 1; HEPES, 10; glucose, 10; pH 7.4 (NaOH titration); and
(4) Intracellular fluid (mM): K Aspartate, 130; MgCl2, 5; EGTA 5; HEPES, 10; Tris-ATP, 4; pH 7.2 (KOH titration).
Test compounds were dissolved in dimethyl sulfoxide (DMSO) and then stocked at room temperature. […]
A manual patch clamp system was used for whole-cell current record in this experiment. […] After the ROMK potassium current recorded in the above steps was stabilized under continuous perfusion with extracellular liquid in the recording bath, the drug to be tested was perfused until the inhibition of the drug on the ROMK current reached a steady state. […]
The data were analyzed by HEKA Patchmaster, XLFit and Graphpad Prism data analysis software.

solubility (in words) [1] | serum potassium change [2] | serum sodium change [2] | Vd/F ([3]; read-out: Apparent Distribution Volume Vz/F) [L/kg] | AUC ([3]; read-out: Area Under Curve AUC) [ng·h/mL] | CL/F ([3]; read-out: Clearance CLz/F) [mL/min/kg] | MRT ([3]; read-out: Mean Residence Time MRT) [h] | Cmax ([3]; read-out: Plasma Conc. Cmax) [ng/mL] | IC50 [4] [nM] | IC50 [5] [nM] | IC50 [6] [nM] | Compound | urinary sodium excretion increase compared with blank control group ([2]; 0.03 mg/kg i.g. once) [times] | urine output increase compared with blank control group ([2]; 0.03 mg/kg i.g. once) [times] | urinary sodium excretion increase compared with blank control group ([2]; 0.1 mg/kg i.g. once) [times] | urine output increase compared with blank control group ([2]; 0.1 mg/kg i.g. once) [times] | urinary potassium compared with normal control group [2]
very good | changed a little | changed a little | 3.02 ± 0.841 | 9280 ± 3050 | 9.82 ± 3.5 | 5.51 ± 0.75 | 1330 ± 388 | 192 | 40 | 18.7 | COc1cc(C(=O)NC2CCN(C[C@H](O)c3ccc4c(c3C)COC4=O)CC2)ncc1C#N [Example 1, (R)-5-cyano-N-(1-(2-hydroxy-2-(4-methyl-1-oxo-1,3-dihydroisobenzofuran-5-yl)ethyl)piperidin-4-yl)-4-methoxypicolinamide] | 3.12 | 2.76 | 3.31 | 3.22 | slightly elevated, but not statistically significant
– | – | – | – | – | – | – | – | 89 | 28 | – | CCOc1cc(C(=O)NC2CCN(C[C@H](O)c3ccc4c(c3C)COC4=O)CC2)ncc1C#N [Example 2, (R)-5-cyano-4-ethoxy-N-(1-(2-hydroxy-2-(4-methyl-1-oxo-1,3-dihydroisobenzofuran-5-yl)ethyl)piperidin-4-yl)picolinamide] | – | – | – | – | –
poor solubility | changed a little | changed a little | – | – | – | – | – | – | – | – | Cc1cc(C(=O)NC2CCN(C[C@H](O)c3ccc4c(c3C)COC4=O)CC2)ncc1C#N [positive control drug, reference compound] | 1.57 | 1.41 | 1.65 | 1.46 | slightly elevated, but not statistically significant
